{
  "source": "ChEMBL document CHEMBL5727886",
  "about": "“Bicyclic compounds as dual ATX/CA inhibitors” (2020)",
  "biological_target": "Carbonic anhydrase 2 (Homo sapiens, UniProt P00918)",
  "assay": "Then 30 μL of 16 nM hCA II solution was added (8 nM final concentration), mixed five times. 30 μL of 4-NPA substrate solution was added (2.5 mM final concentration), mixed five times.",
  "data": [
    {"smiles": "NS(=O)(=O)c1ccc(C(=O)N2C[C@H]3CN(C(=O)/C=C/c4ccc(OC(F)(F)F)cc4)C[C@]3(F)C2)c(F)c1", "note": "(relative stereo)", "values": [
      {"measurement": "IC50", "result": 6, "unit": "nM"}
    ]}
  ]
}
